We go through 43 compounds from patent publication US8222280B2, “Ether compounds with nitrogen-containing 5-member heterocycle and uses thereof” (Sinochem Corporation, priority 2008, dated 2012).

Test [1] has as its system second instar larvae of diamond backmoth (Plutella xylostella). Nature of the test: Insecticidal activity against diamond backmoth, leaf disc spraying by airbrush. Format: in vivo. The conditions noted are these: mortality after 72 hrs, sprayed cabbage leaf disc. The method, then: To determine the insecticidal and acaricidal activity of selected compounds by the following procedures:
Compounds were dissolved in mixed solvent (acetone:methanol=1:1), and diluted to required concentration with water containing 0.1% of tween 80.
The second instar larvae of diamond backmoth (Plutella xylostella) were used in biological test. The method of spraying by airbrush was employed.
Determination of insecticidal activity against diamond backmoth: The cabbage leaves were made into plates of 1 cm diameter by punch. A test solution (0.5 ml) was sprayed by airbrush at the pressure of 0.7 kg/cm^2 to both sides of every plate. 10 Second instar larvae were put into the petri-dishes after the leaf disc air-dried and 3 replicates were set for each treatment. Then the insects were maintained in observation room ([…], 60-70% R.H.). Scores were conducted and mortalities were calculated after 72 hrs.

The subject of a further test is wheat powdery mildew. The experiment in a line: Fungicidal activity in vivo on potted plants. The conditions noted are these: 400 ppm; sprayed on potted plant, inoculation after 24 hours, visual assessment after about 1 week. The method, then:
Determination of fungicidal activities against plant diseases of selected compounds were carried out by the following procedure:
Determination of Fungicidal Activity In Vivo:
Plants were prepared in pot. Compounds were dissolved in acetone and diluted to required concentration by water containing 0.1% (wt) Tween80. Test solution was sprayed onto potted plant. Pathogen inoculation was carried out after 24 hours, then plants were hold in growth chambers maintaining constant temperature and moisture for infection. When untreated plant was under desirable disease severity (after 1 week approximately), assessment was carried out by visual observation.

As to `Cc1c(-c2ccccc2)nn(C)c1OCCCCOc1c(Cl)cc(OCC=C(Cl)Cl)cc1Cl` [Compound 257], the “control of the second instar larvae of diamond backmoth” value (“control … of diamond backmoth” below) in test [1] (dose 100 mg/L) worked out at 100%.

For the compound `Cc1ccc(-c2c(C)c(OCCCCOc3c(Cl)cc(OCC=C(Cl)Cl)cc3Cl)nn2C)cc1` [Compound 538], the “control … of diamond backmoth” value in test [1] (dose 100 mg/L) is reported as 100%.

On to `Cc1c(-c2ccc(Cl)cc2)nn(C)c1OCCCOc1c(Cl)cc(OCC=C(Cl)Cl)cc1Cl` [Compound 77], for which the “control … of diamond backmoth” value in test [1] (dose 100 mg/L) is 100%.

Turning to `Cc1c(-c2ccccc2)nn(C)c1OCCCOc1c(Cl)cc(OCC=C(Cl)Cl)cc1Cl` [Compound 76], the “control … of diamond backmoth” value in test [1] (dose 100 mg/L) was determined as 100%.

As to `Cc1ccc(-c2cc(OCCCOc3c(Cl)cc(OCC=C(Cl)Cl)cc3Cl)n(C)n2)c(C)c1` [Compound 26], the “control … of diamond backmoth” value in test [1] (dose 100 mg/L) is on record as 100%.

Regarding `Cn1nc(OCCCOc2c(Cl)cc(OCC=C(Cl)Cl)cc2Cl)cc1-c1ccc(Br)cc1` [Compound 283], the “control … of diamond backmoth” value in test [1] (dose 100 mg/L) is given as 100%.

`Cn1nc(OCCCOc2c(Cl)cc(OCC=C(Cl)Cl)cc2Cl)cc1-c1ccc(C(C)(C)C)cc1` [Compound 306]: the “control … of diamond backmoth” value in test [1] (dose 100 mg/L) stood at 100%.

For `Cc1c(OCCCOc2c(Cl)cc(OCC=C(Cl)Cl)cc2Cl)nn(C)c1-c1ccc(C(C)(C)C)cc1` [Compound 389], the “control … of diamond backmoth” value in test [1] (dose 100 mg/L) worked out at 100%.

With `Cn1nc(OCCCOc2c(Cl)cc(OCC=C(Cl)Cl)cc2Cl)cc1-c1ccc(Cl)cc1` [Compound 269], the “control … of diamond backmoth” value in test [1] (dose 25 mg/L) and in test [1] (dose 100 mg/L) was 100% in each case.

With `COc1ccccc1-c1cc(OCCCOc2c(Cl)cc(OCC=C(Cl)Cl)cc2Cl)n(C)n1` [Compound 24], the “control … of diamond backmoth” value in test [1] (dose 100 mg/L) turned out to be 100%.

`Cn1nc(-c2ccc(Cl)cc2)cc1OCCOc1c(Cl)cc(OCC=C(Cl)Cl)cc1Cl` [Compound 225]: the “control … of diamond backmoth” value in test [1] (dose 25 mg/L) and in test [1] (dose 100 mg/L) was 100% each time.

Turning to `ClC(Cl)=CCOc1cc(Cl)c(OCCCOc2cnn(-c3ccc(Cl)cc3)c2)c(Cl)c1` [Compound 546], the “control … of diamond backmoth” value in test [1] (dose 100 mg/L) was found to be 100%.

Turning to `CCOc1ccc(-c2c(C)c(OCCCOc3c(Cl)cc(OCC=C(Cl)Cl)cc3Cl)nn2C)cc1` [Compound 356], in test [1] (dose 100 mg/L), the “control … of diamond backmoth” value was found to be 100%.

For `CCCc1ccc(-c2cc(OCCCOc3c(Cl)cc(OCC=C(Cl)Cl)cc3Cl)n(C)n2)cc1` [Compound 38], the “control … of diamond backmoth” value in test [1] (dose 100 mg/L) was found to be 100%.

In the case of `Cn1nc(-c2ccc(Cl)cc2)cc1OCCCCOc1ccc(OCC=C(Cl)Cl)cc1Cl` [Compound 248], the “control … of diamond backmoth” value in test [1] (dose 25 mg/L) and in test [1] (dose 100 mg/L) was 100% in each case.

Take `Cc1ccc(-c2cc(OCCCOc3c(Cl)cc(OCC=C(Cl)Cl)cc3Cl)n(C)n2)cc1` [Compound 17]: the “control … of diamond backmoth” value in test [1] (dose 100 mg/L) is reported as 100%.

Take `COc1ccc(-c2cc(OCCCOc3c(Cl)cc(OCC=C(Cl)Cl)cc3Cl)nn2C)cc1` [Compound 280]: the “control … of diamond backmoth” value in test [1] (dose 100 mg/L) came to 100%.

On to `Cn1nc(-c2ccc(Cl)cc2Cl)cc1OCCCOc1c(Cl)cc(OCC=C(Cl)Cl)cc1Cl` [Compound 11], for which the “control … of diamond backmoth” value in test [1] (dose 100 mg/L) is 100%.

For `Cc1c(OCCCOc2c(Cl)cc(OCC=C(Cl)Cl)cc2Cl)nn(C)c1-c1ccc(C(C)C)cc1` [Compound 387], the “control … of diamond backmoth” value in test [1] (dose 25 mg/L) and in test [1] (dose 100 mg/L) was 100% each time.

As to `Cn1nc(-c2ccccc2)cc1OCCCOc1c(Cl)cc(OCC=C(Cl)Cl)cc1Cl` [Compound 1], the “control … of diamond backmoth” value in test [1] (dose 100 mg/L) is on record as 100%.

Consider `COc1ccc(-c2c(C)c(OCCCOc3c(Cl)cc(OCC=C(Cl)Cl)cc3Cl)nn2C)cc1` [Compound 363], for which, in test [1] (dose 100 mg/L), the “control … of diamond backmoth” value came to 100%.

Take `Cc1ccc(-c2c(C)c(OCCCOc3c(Cl)cc(OCC=C(Cl)Cl)cc3Cl)nn2C)cc1` [Compound 367]: the “control … of diamond backmoth” value in test [1] (dose 25 mg/L) and in test [1] (dose 100 mg/L) was 100% each time.

On to `Cc1ccc(-c2cc(OCCCOc3c(Cl)cc(OCC=C(Cl)Cl)cc3Cl)nn2C)cc1` [Compound 284], for which, in test [1] (dose 100 mg/L), the “control … of diamond backmoth” value stood at 100%.

Take `Cn1nc(-c2ccc(Br)cc2)cc1OCCCOc1c(Cl)cc(OCC=C(Cl)Cl)cc1Cl` [Compound 16]: in test [1] (dose 100 mg/L), the “control … of diamond backmoth” value is on record as 100%.

Regarding `CSc1ccc(-c2cc(OCCCOc3c(Cl)cc(OCC=C(Cl)Cl)cc3Cl)n(C)n2)cc1` [Compound 8], in test [1] (dose 100 mg/L), the “control … of diamond backmoth” value turned out to be 100%.

On to `Cn1nc(OCCCOc2c(Cl)cc(OCC=C(Cl)Cl)cc2Cl)cc1-c1ccccc1` [Compound 268], for which the “control … of diamond backmoth” value in test [1] (dose 25 mg/L) and in test [1] (dose 100 mg/L) was 100% throughout.

On to `Cn1nc(OCCCOc2c(Cl)cc(OCC=C(Cl)Cl)cc2Cl)cc1-c1ccc(Cl)cc1Cl` [Compound 278], for which the “control … of diamond backmoth” value in test [1] (dose 100 mg/L) stood at 100%.

With `COc1ccc(-c2cc(OCCCOc3c(Cl)cc(OCC=C(Cl)Cl)cc3Cl)n(C)n2)cc1` [Compound 13], in test [1] (dose 100 mg/L), the “control … of diamond backmoth” value is 100%.

`Cc1c(OCCCCOc2c(Cl)cc(OCC=C(Cl)Cl)cc2Cl)nn(C)c1-c1ccccc1` [Compound 532]: the “control … of diamond backmoth” value in test [1] (dose 100 mg/L) was determined as 100%.

For the compound `CCc1ccc(-c2c(C)c(OCCCOc3c(Cl)cc(OCC=C(Cl)Cl)cc3Cl)nn2C)cc1` [Compound 368], the “control … of diamond backmoth” value in test [1] (dose 100 mg/L) was found to be 100%.

For `CCc1ccc(-c2cc(OCCCOc3c(Cl)cc(OCC=C(Cl)Cl)cc3Cl)n(C)n2)cc1` [Compound 18], in test [1] (dose 100 mg/L), the “control … of diamond backmoth” value amounted to 100%.

Turning to `Cc1c(OCCCOc2c(Cl)cc(OCC=C(Cl)Cl)cc2Cl)nn(C)c1-c1ccc(Cl)cc1Cl` [Compound 360], the “control … of diamond backmoth” value in test [1] (dose 100 mg/L) was determined as 100%.

Consider `Cc1ccc(-c2cc(OCCCOc3c(Cl)cc(OCC=C(Cl)Cl)cc3Cl)nn2C)c(C)c1` [Compound 293], for which, in test [1] (dose 100 mg/L), the “control … of diamond backmoth” value is 100%.

On to `Cc1c(-c2ccc(Cl)cc2Cl)nn(C)c1OCCCOc1c(Cl)cc(OCC=C(Cl)Cl)cc1Cl` [Compound 86], for which, in test [1] (dose 100 mg/L), the “control … of diamond backmoth” value was determined as 100%.

Consider `Cn1nc(OCCOc2c(Cl)cc(OCC=C(Cl)Cl)cc2Cl)cc1-c1ccc(Cl)cc1` [Compound 500], for which, in test [1] (dose 100 mg/L), the “control … of diamond backmoth” value was 100%.

Take `Cn1nc(OCCCCOc2c(Cl)cc(OCC=C(Cl)Cl)cc2Cl)cc1-c1ccc(Cl)cc1` [Compound 522]: the “control … of diamond backmoth” value in test [1] (dose 100 mg/L) amounted to 100%.

Regarding `Cc1ccc(-c2nn(C)c(OCCCOc3c(Cl)cc(OCC=C(Cl)Cl)cc3Cl)c2C)cc1` [Compound 92], the “control … of diamond backmoth” value in test [1] (dose 100 mg/L) was determined as 100%.

In the case of `FC(F)(F)c1ccc(OCCCOc2c(Cl)cc(OCC=C(Cl)Cl)cc2Cl)nc1` [pyridalyl, Pyridalyl, reference compound], the results for the “control … of diamond backmoth” value in test [1] (dose 6.25 mg/L), in test [1] (dose 25 mg/L) and in test [1] (dose 100 mg/L) were 65%, 100% and 100%, respectively.

In the case of `Cn1nc(-c2ccc(Cl)cc2)cc1OCCCCOc1c(Cl)cc(OCC=C(Cl)Cl)cc1Cl` [Compound 247], the “control … of diamond backmoth” value in test [1] (dose 25 mg/L) and in test [1] (dose 100 mg/L) was 100% in each case.

For `Cc1c(OCCCOc2c(Cl)cc(OCC=C(Cl)Cl)cc2Cl)nn(C)c1-c1ccc(Cl)c(Cl)c1` [Compound 361], in test [1] (dose 100 mg/L), the “control … of diamond backmoth” value was 100%.

For the compound `Cn1nc(-c2ccc(Cl)cc2)cc1OCCCOc1c(Cl)cc(OCC=C(Cl)Cl)cc1Cl` [Compound 2], the “control … of diamond backmoth” value in test [1] (dose 25 mg/L) and in test [1] (dose 100 mg/L) was 100% throughout. Besides, the “control of wheat powdery mildew” value in the test with wheat powdery mildew was “more than 70%”.

As to `Cc1c(OCCCOc2c(Cl)cc(OCC=C(Cl)Cl)cc2Cl)nn(C)c1-c1ccc(F)cc1` [Compound 352], the “control … of diamond backmoth” value in test [1] (dose 25 mg/L) and in test [1] (dose 100 mg/L) was 100% in each case.

Take `Cc1ccc(-c2c(C)c(OCCCOc3c(Cl)cc(OCC=C(Cl)Cl)cc3Cl)nn2C)cc1C` [Compound 377]: the “control … of diamond backmoth” value in test [1] (dose 25 mg/L) and in test [1] (dose 100 mg/L) was 100% in each case.
